# “Also recorded” adds a separate entry of the source.
# Assays:
# PC3 and DU145 tumors = assay: IR sodium MRI, PC3 and DU145 tumors taken as a whole; format: in vivo, nude mice; conditions: PC3 and DU145 tumors plotted together
# Experimental: (A) Chemotherapy and inversion recovery MR imaging—Following acquisition of control images, antineoplastics were administered. All IR images and SQ images were normalized to the brightest phantom within each slice (i.e., 40% Ficoll for IR and 30% Ficoll for SQ respectively). All tumors were analyzed by examining changes in intensity at the brightest—usually central area—of the tumor image. It was clearly identifiable both from manual examination with line profiles or from the pixel density histogram derived from a region of interest analysis. […] Results from PC3 tumors (solid lines, filled circles) and DU145 tumors (dashed lines, open circles) are plotted together. […]
# In vivo detection of antineoplastic effects using weighted sodium MR images—Examination of the effect of chemotherapy on the IR sodium image in a series of PC3 and DU145 tumors was studied. […] Elevation is significant for each drug taken separately for the more numerous PC3 tumor experiments (taxotere, 32% increase at p<0.001, n=5; VP-16, 38% increase at p<0.0005, n=7); and is also significant for all PC3 experiments measured at 48 hrs (28%, p<0.05, n=11). […]
# The effect of chemotherapy on the IR sodium image intensity in PC3 and DU145 tumors was consistent with the culture results. […] These values were calculated from human doses using standard equations which convert weight to surface area for small mammals. […]
# L cells = conditions: cited from earlier work
# [1] = test system: carcinogen (MNU) induced breast tumor; assay: Weighted and non-weighted sodium MRI of carcinogen (MNU) induced breast tumor; format: in vivo, Sprague Dawley rat; conditions: rat
# Experimental: In another example, a breast cancer tumor is imaged in an animal model. This image verifies that the imaging diagnostic described herein responds to the treatment of a different animal model when using a different tissue type as the neoplastic target. The tumor was induced by injecting a Sprague Dawley rat with carcinogen MNU. When the tumor was palpable and measured in excess of 5 mm in diameter, the rat was imaged using weighting and non-weighting pulse sequences. One rat was given a 3 mg intra venous injection of taxotere and a second was given a 6 mg injection of taxotere. […] Both the images became brighter, with the most dramatic proportional change occurring in the weighted image.
# [2] = human single loading doses; cited from earlier work
# mouse = conditions: in vivo; cited from earlier work
# LNCaP tumor = assay: Na SQ and TQ line profiles of LNCaP tumor in vivo; conditions: 18 hours after i.v. injection of 1 mg in the femoral vein
# Experimental: After preliminary studies, experiments were performed where proton, Na SQ and Na TQ images and line profiles were acquired at baseline and following bolus i.v. injection of chemotherapy. Imaging results for a LNCaP tumor in vivo, both at baseline and 18 hours after i.v. injection of 1 mg of taxotere in the femoral vein were examined.
Structure (SMILES),IR image intensity at 24 hrs versus control (graphs) (PC3 and DU145 tumors),effect on total cellular monovalent cations (L cells; K+ loss exceeds Na+ gain),effect on [Cai] (L cells; L cells),effect on [Nai] (L cells; L cells),effect on pHi (L cells; L cells),response of sodium MR images to treatment ([1]; 3 mg intra venous injection),response of sodium MR images to treatment ([1]; 6 mg intravenous injection),peak plasma level [2],plasma level for the first 9.6 hrs [2] [nM],plasma level for the first 25 hrs [2] [nM],reported toxic mouse dose (mouse) [mg],change of SQ line profile (LNCaP tumor),change of TQ line profiles (LNCaP tumor)
"COc1cc([C@@H]2c3cc4c(cc3[C@@H](O[C@@H]3O[C@@H]5CO[C@@H](C)O[C@H]5[C@H](O)[C@H]3O)[C@H]3COC(=O)[C@H]23)OCO4)cc(OC)c1O [VP-16, etoposide]",increased image intensity,net reduction,elevate,elevate,lowers,,,,,,,,
CC(=O)O[C@@]12CO[C@@H]1C[C@H](O)[C@@]1(C)C(=O)[C@H](O)C3=C(C)[C@@H](OC(=O)[C@H](O)[C@@H](NC(=O)OC(C)(C)C)c4ccccc4)C[C@@](O)([C@@H](OC(=O)c4ccccc4)[C@H]21)C3(C)C [taxotere],increased image intensity,,,,,Only the latter showed a response,showed a response; also recorded: become brighter after the treatment,about 5 μMol/L,> 50,> 10,4.5,did not significantly vary,substantial increase

# From patent US6681132B1, “Sodium magnetic reasonance imaging used in diagnosing tumors and assessing response to treatment” (The Trustees of Columbia University in the City of New York, priority 1999, dated 2004)
